pIC50: −log10 of the molar value.

In patent US11384075B2, “Quinolinone compounds” (Janssen Pharmaceutica NV, priority 2017, dated 2022) one finds IC50 and GI50 data, which are given here for eight compounds.

For test [1], the target named is T1, human FGFR3 wild type enzyme (cytoplasmic domain) (Homo sapiens, UniProt P22607).
T1 construct: human FGFR3 wild type enzyme (cytoplasmic domain, from Carna Biosciences); purchased Carna Biosciences
Description: FGFR3 wild type mobility shift assay (enzymatic assay). The format is biochemical. As to conditions: 75 μM ATP, 50 minutes at 30° C., Caliper EZ reader II. In a few lines: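 Cytoplasmic domain of human wild-type FGFR3 (0.04 ng/μL) with 75 μM ATP and 1 μM FL-peptide 30, pH 7.4 HEPES/MgCl2 buffer, 1% DMSO, 50 min at 30 °C, EDTA-stopped. Substrate-product conversion read by mobility shift. IC50, pIC50 and Hill slope from 10-point 4-fold dilutions starting at 10 μM.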

The target of test [2] is T2, human FGFR3 V555M enzyme (cytoplasmic domain carrying V555M mutation) (Homo sapiens, UniProt P22607, V555M).
T2 construct: human FGFR3 V555M enzyme (cytoplasmic domain carrying V555M mutation, from Carna Biosciences); purchased Carna Biosciences
Nature of the test: FGFR3 V555M mobility shift assay (enzymatic assay). Format: biochemical. As to conditions: 30 μM ATP, 45 minutes at 30° C., Caliper EZ reader II. In a few lines:
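Cytoplasmic-domain FGFR3 V555M (0.04 ng/μL) with 30 μM ATP and 1 μM FL-peptide 30 in HEPES pH 7.4/MgCl2/Brij35/DTT, 1% DMSO, 45 min at 30 °C, EDTA-stopped. Mobility-shift read of substrate-product conversion; 10-point 4× dilution from 10 μM fitted for IC50/pIC50.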

Test [3] relates to NIH/3T3 cells transfected with the same control vector. Nature of the test: NIH/3T3 mock cell proliferation assay (counter assay, general toxicity). Format: cell-based. As to conditions: Mus musculus, NIH3T3, 72 h, 72-hr incubation, CellTiter Glo, starting with 30 μM; counter assay for general toxicity; read-out: NIH/3T3 MOCK CTG (IC50). In a few lines: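 Control-vector NIH/3T3 cells, 30,000/well in DMEM with 10% FBS, exposed 72 h at 37 °C to compound (9 points, 3-fold from 30 μM, 0.3% DMSO). CellTiter-Glo luminescence normalized to survival %; IC50, pIC50 and Hill slope from concentration-response fit.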
A general note: ATP-based viability assays read luminescence as a measure of living cells.

The target in test [4] is T3, NIH/3T3 cells overexpressing FGFR3 WT-TACC3 fusion protein (Homo sapiens, UniProt P22607).
T3 construct: NIH/3T3 FGFR3 WT-TACC3 CTG (IC50); other: 72-hr incubation, CellTiter Glo, starting with 10 μM; fused on or other part: Q9Y6A5 (Transforming acidic coiled-coil-containing protein 3)
Description: NIH/3T3 FGFR3 WT-TACC3 cell proliferation assay. The format is cell-based. The following applies: 72-hr incubation, CellTiter Glo, starting with 10 μM; read-out: NIH/3T3 FGFR3 WT-TACC3 CTG (IC50). An outline of the steps: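 Cells seeded overnight, then exposed 72 h at 37 °C to compound in 9-point 4-fold dilutions from 10 μM (0.1% DMSO final). Viability read by CellTiter-Glo luminescence, normalized to survival %; IC50, pIC50 and Hill slope from concentration-response fit.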

Test [5] concerns the target T4, NIH/3T3 cells overexpressing FGFR3 V555M-TACC3 fusion protein (Homo sapiens, UniProt P22607, V555M, cells depend on it).
T4 construct: NIH/3T3 FGFR3 V555M-TACC3 CTG (IC50); other: 72-hr incubation, CellTiter Glo, starting with 10 μM; fused on or other part: Q9Y6A5 (Transforming acidic coiled-coil-containing protein 3)
Nature of the test: NIH/3T3 FGFR3 V555M-TACC3 cell proliferation assay. As to conditions: 72-hr incubation, CellTiter Glo, starting with 10 μM; read-out: NIH/3T3 FGFR3 V555M-TACC3 CTG (IC50). The format is cell-based. An outline of the steps: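 NIH/3T3 cells overexpressing FGFR3 V555M-TACC3 fusion, 30,000/well in DMEM/10% FBS, treated for 72 h at 37 °C with 9 doses (4× dilutions from 10 μM top, 0.1% DMSO). CellTiter-Glo luminescence normalised to % survival; IC50, pIC50 and Hill slope from concentration-response fits.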

In test [6] the target is T5, human FGFR3 V555L enzyme (cytoplasmic domain carrying V555L mutation) (Homo sapiens, UniProt P22607, V555L).
T5 construct: human FGFR3 V555L enzyme (cytoplasmic domain carrying V555L mutation, from Carna Biosciences); purchased Carna Biosciences
Nature of the test: FGFR3 V555L mobility shift assay (enzymatic assay). Format: biochemical. As to conditions: 40 μM ATP, 50 minutes at 30° C., Caliper EZ reader II. The method, then:
FGFR3 V555L Mobility Shift Assay (Enzymatic Assay)
In a final reaction volume of 25 μL, 0.04 ng/μL human FGFR3 V555L enzyme (cytoplasmic domain carrying V555L mutation, from Carna Biosciences) was incubated with 40 μM ATP, 1 μM FL-peptide 30 substrate and 250 nL of testing compound (1% DMSO final) in assay buffer (100 mM HEPES pH 7.4, 10 mM MgCl2, 0.003% Brij35, 1 mM DTT). After incubation for 50 minutes at 30° C. the reaction was stopped with 10 μL of 0.5M EDTA pH 8.0, and then 25 μL of reaction mixture was transferred to reading plate and measured on Caliper EZ reader II. The substrate-product conversion rate was used as raw data for normalization and concentration-response curve (10 dose points with 4× serial dilution, starting with 10 μM) was plotted using Prism to calculate IC50 (M), pIC50 (−log IC50) and HillSlope value.

T1 sequence (P22607 397-806 limits assumed): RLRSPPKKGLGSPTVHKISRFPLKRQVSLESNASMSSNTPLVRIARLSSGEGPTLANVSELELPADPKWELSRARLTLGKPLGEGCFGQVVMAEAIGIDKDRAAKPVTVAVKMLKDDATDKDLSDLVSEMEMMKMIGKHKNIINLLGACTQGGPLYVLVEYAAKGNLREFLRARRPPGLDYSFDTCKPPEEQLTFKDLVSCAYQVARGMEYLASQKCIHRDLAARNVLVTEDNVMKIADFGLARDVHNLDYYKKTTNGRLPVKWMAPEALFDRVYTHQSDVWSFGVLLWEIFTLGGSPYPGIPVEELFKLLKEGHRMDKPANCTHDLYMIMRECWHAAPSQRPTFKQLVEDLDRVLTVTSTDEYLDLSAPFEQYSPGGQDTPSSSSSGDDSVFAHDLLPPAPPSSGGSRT
T2 sequence (P22607 397-806 V555M limits assumed): as the sequence (P22607 397-806 limits assumed) above, with V159M counted along it
T5 sequence (P22607 397-806 V555L limits assumed): as the sequence (P22607 397-806 limits assumed) above, with V159L counted along it
T3 sequence (P22607 whole entry, change not shown, the tested form may be a part): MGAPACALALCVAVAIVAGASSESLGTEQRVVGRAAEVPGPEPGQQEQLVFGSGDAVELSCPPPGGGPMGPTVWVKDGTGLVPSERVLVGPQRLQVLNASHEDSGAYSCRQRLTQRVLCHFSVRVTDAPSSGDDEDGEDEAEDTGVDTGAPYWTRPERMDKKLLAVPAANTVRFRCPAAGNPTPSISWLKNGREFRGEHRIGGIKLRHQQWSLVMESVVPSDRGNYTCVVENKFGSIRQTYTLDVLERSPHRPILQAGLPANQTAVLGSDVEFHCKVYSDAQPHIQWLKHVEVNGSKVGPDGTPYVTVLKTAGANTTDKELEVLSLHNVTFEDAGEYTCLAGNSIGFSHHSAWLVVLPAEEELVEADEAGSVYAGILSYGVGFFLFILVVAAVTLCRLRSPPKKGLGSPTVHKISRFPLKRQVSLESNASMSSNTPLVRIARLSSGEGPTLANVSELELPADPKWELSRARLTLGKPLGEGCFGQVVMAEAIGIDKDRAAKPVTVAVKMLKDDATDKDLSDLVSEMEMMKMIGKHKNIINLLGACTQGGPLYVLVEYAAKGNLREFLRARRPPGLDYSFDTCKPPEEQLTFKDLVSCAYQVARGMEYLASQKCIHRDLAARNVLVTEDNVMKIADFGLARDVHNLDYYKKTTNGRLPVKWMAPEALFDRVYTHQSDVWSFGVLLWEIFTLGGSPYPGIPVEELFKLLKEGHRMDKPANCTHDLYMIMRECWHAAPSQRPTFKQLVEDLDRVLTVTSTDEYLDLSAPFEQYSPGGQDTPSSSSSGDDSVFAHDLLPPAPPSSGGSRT
T4 sequence (P22607 whole entry V555M, the tested form may be a part): as the sequence (P22607 whole entry, change not shown, the tested form may be a part) above, with V555M counted along it

Turning to `CCC(Nc1c(-c2nc3ccc(N4CCOCC4)cc3[nH]2)c(=O)[nH]c2ccccc12)c1ncccn1` (single isomer, unassigned) [Compound 30a, (S*)-3-(6-morpholino-1H-benzo[d]imidazol-2-yl)-4-((1-(pyrimidin-2-yl)propyl)amino)quinolin-2(1H)-one], the pIC50 is 9.55 in test [1], 9.75 in test [2], 5.54 in test [3] and 9.21 in test [6]. The GI50 came to 7.19 nM in test [4] and 5.34 nM in test [5].

On to `CC(C)C(Nc1c(-c2nc3ccc(N4CCOCC4)cc3[nH]2)c(=O)[nH]c2ccccc12)c1ncccn1` (single isomer, unassigned) [Compound 32a, (S*)-4-((2-methyl-1-(pyrimidin-2-yl)propyl)amino)-3-(6-morpholino-1H-benzo[d]imidazol-2-yl)quinolin-2(1H)-one], for which the pIC50 was 9.43 in test [1], 9.77 in test [2], 5.58 in test [3] and 9.44 in test [6]. The GI50 is 16.5 nM in test [4] and 5.75 nM in test [5].

With `Cc1cc(N2CCOCC2)cc2[nH]c(-c3c(N[C@@H](C)c4ncccn4)c4ccccc4[nH]c3=O)nc12` [Compound 46, (S)-3-(4-methyl-6-morpholino-1H-benzo[d]imidazol-2-yl)-4-((1-(pyrimidin-2-yl)ethyl)-amino)quinolin-2(1H)-one], the pIC50 is 8.93 in test [1], 9.13 in test [2] and 5.41 in test [3]. Moreover, the values for the GI50 in test [4] and in test [5] were 19.9 nM and 15.9 nM, respectively.

Regarding `Cc1c(N2CCOCC2)ccc2nc(-c3c(N[C@@H](C)c4ncccn4)c4ccccc4[nH]c3=O)[nH]c12` [Compound 47, (S)-3-(7-methyl-6-morpholino-1H-benzo[d]imidazol-2-yl)-4-((1-(pyrimidin-2-yl)-ethyl)amino)quinolin-2(1H)-one], the pIC50 in test [1] was 9.17; in test [2] it was 9.57; in test [3], 6.26. Besides, the GI50 in test [4] was determined as 16 nM; in test [5] it was 12.3 nM.

Turning to `C[C@H](Nc1c(-c2nc3ccc(N4CCOCC4)cc3[nH]2)c(=O)[nH]c2ccccc12)c1ccccn1` [Compound 55, (S)-3-(6-Morpholino-1H-benzo[d]imidazol-2-yl)-4-((1-(pyridin-2-yl)ethyl)amino)-quinolin-2(1H)-one], the pIC50 is 8.75 in test [1], 9.27 in test [2], 6.34 in test [3] and 8.90 in test [6]. Besides, the GI50 in test [5] worked out at 34.3 nM.

On to `CC(C)N1CCN(c2ccc3nc(-c4c(N[C@@H](C)c5ccccn5)c5ccccc5[nH]c4=O)[nH]c3c2)CC1` [Compound 56, (S)-3-(6-(4-isopropylpiperazin-1-yl)-1H-benzo[d]imidazol-2-yl)-4-((1-(pyridin-2-yl)-ethyl)amino)quinolin-2(1H)-one], for which the pIC50 in test [1] was 9.89; in test [2], 10.17; in test [3], 6.11; in test [6] it was 9.87. The GI50 in test [5] is 10.7 nM.

Take `C[C@H](Nc1c(-c2nc3ccc(N4CCN(C)CC4)cc3[nH]2)c(=O)[nH]c2cc(F)ccc12)c1ccccn1` [Compound 63, (S)-7-Fluoro-3-(6-(4-methylpiperazin-1-yl)-1H-benzo[d]imidazol-2-yl)-4-((1-(pyridin-2-yl)ethyl)amino)quinolin-2(1H)-one]: the pIC50 in test [1] was 9.15; in test [2] it was 8.78; in test [3], 6.20; in test [6], 8.86. In test [5], the GI50 stood at 51.4 nM.

For the compound `C[C@H](Nc1c(-c2nc3ccc(OC4CCN(C)CC4)cc3[nH]2)c(=O)[nH]c2ccccc12)c1ccccn1` [Compound 64, (S)-3-(6-((1-Methylpiperidin-4-yl)oxy)-1H-benzo[d]imidazol-2-yl)-4-((1-(pyridin-2-yl)-ethyl)amino)quinolin-2(1H)-one], the results for the pIC50 in test [1], in test [2] and in test [6] were 9.43, 9.58 and 9.30, respectively.
